Experimental data taken from patent publication US10808008B2, “Aromatic-cationic peptides and uses of same” (Cornell University, priority 2012, dated 2020).
Entries after “also recorded” stand apart in the source; their conditions may differ.

Experiments:
[1] = molecular target: cytochrome c (Equus caballus, UniProt P00004); experiment: Fluorescence quenching of labelled peptides by cytochrome c; assay type: binding, horse; parameters: from tissue; host or cells: horse heart; details: for change in λmax on quenching by cytochrome c / quenching of fluorescence by cytochrome c: Example 22; for quenching of fluorescence by cytochrome c: additions of cytochrome c (2 μM)
Sequence of cytochrome c (P00004 2-105 limits assumed): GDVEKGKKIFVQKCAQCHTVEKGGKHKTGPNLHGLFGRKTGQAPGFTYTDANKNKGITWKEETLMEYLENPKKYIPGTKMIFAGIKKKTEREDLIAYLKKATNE
Method: Maximal fluorescence emission of SS-19 was monitored at 420 nm following excitation at 320 nm using Hitachi F-4500 fluorescence spectrophotometer.
The quenching by cytochrome c was not displaced by sequential additions of bovine serum albumin (FIG. 12C, A+arrows) (500 μg/ml). […] Accordingly, aromatic-cationic peptides of the present disclosure are useful for the prevention or treatment of diseases or disorders characterized by dysregulation of cytochrome c.
Fluorescence emission of SS-19 (10 μM) was monitored in real time (Ex/Em=320 nm/420 nm) using Hitachi F-4500 fluorescence spectrophotometer.
(§1) Interaction of SS peptides with horse heart cytochrome c in the absence or presence of free cardiolipin or cardiolipin/POPC (1:1) liposomes (prepared as described in Example 22) was examined by fluorescence quenching of [atn]SS-02 (λex/λem=320/420 nm) and [ald]SS-02 (λex/λem=360/510 nm) upon addition of cytochrome c (using a Hitachi F-4500 fluorescence spectrophotometer). The solvents used to dissolve cardiolipin and POPC had negligible effect on cytochrome c-dependent quenching of these peptides. All experiments were done in low ionic solution (deionized water) or 20 mM Hepes pH 7.4.

[2] = Fluorescence spectroscopy of labelled peptides with cardiolipin; assay type: binding
From the text: The peptides 2′,6′-Dmt-D-Arg-[…] (SS-19) and 2′,6′-Dmt-D-Arg-Phe-Lys-Ald-NH2 (SS-37) cationic peptides carry net positive charge at neutral pH. They are expected to associate with anionic phospholipid cardiolipin based on electrostatic interaction. The interaction of small peptides with lipid membranes can been studied using fluorescence spectroscopy (Surewicz and Epand, 1984). […] Polarity-sensitive fluorescent probes were incorporated into the peptides and fluorescence spectroscopy was used to determine if SS-19, SS-37 and SS-36 interact with CL.
The peptide 2′,6′-Dmt-D-Arg-Phe-(atn)Dap-NH2 (SS-19) contains anthraniloyl incorporated into diaminopropionic acid. Anthraniloyl derivatives fluoresce in the 410-420 nm range when excited at 320-330 nm (Hiratsuka T, 1983). The quantum yield of anthraniloyl derivatives is strongly dependent on the local environment, and can increase 5-fold going from water to 80% ethanol, together with a blue shift in the emission maxima (λ max) of <10 nm (Hiratsuka T, 1983). Fluorescence emission spectrum of SS-19 (1 μM) alone, and in the presence of increasing concentrations of CL (5 to 50 μg/ml), was monitored following excitation at 320 nm using Hitachi F-4500 fluorescence spectrophotometer.
The peptide 2′,6′-Dmt-D-Arg-Phe-Lys-Ald-NH2 (SS-37) contains an additional amino acid, aladan (Ald), which has been reported to be particularly sensitive to the polarity of its environment and it has been used to probe the electrostatic character of proteins (Cohen et al., 2002). When excited at 350 nm, λmax shifts from 542 nm in water to 409 nm in heptane, accompanied by a significant increase in quantal yield (Cohen et al., 2001). Fluorescence emission spectrum of SS-37 (1 μM) alone, and in the presence of increasing concentrations of CL, was monitored following excitation at 350 nm. Addition of CL (5 to 50 μg/ml) led to a 3-fold increase in quantal yield of SS-37 as well as a clear blue shift in λ max, from 525 nm without CL to 500 nm with 50 μg/ml CL (FIG. 11B).
The peptide 2′,6′-Dmt-D-Arg-Ald-Lys-NH2 (SS-36) contains Ald in place Phe^3 in SS-02. Fluorescence emission spectrum of SS-36 (1 μM) alone, and in the presence of increasing concentrations of CL, was monitored following excitation at 350 nm. SS-36 was the most sensitive to the addition of CL, with dramatic increase in quantal yield and blue shift observed with much lower added amounts of CL (1.25 to 5 μg/ml). The λmax shifted from 525 nm without CL to 500 nm with as little as 1.25 μg/ml CL, and quantal yield increased by more than 100-fold with the addition of 5 μg/ml of CL (FIG. 11C). […] Accordingly, aromatic-cationic peptides of the present disclosure are useful for the prevention or treatment of diseases or disorders characterized by dysregulation of cardiolipin.
(§2) Changes in the emission intensity of the [atn]SS-02 and the [ald]SS-02 were measured using a Hitachi F-4500 fluorescence spectrophotometer. The different solvents used to dissolve the various phospholipids (chloroform, methanol and ethanol) had negligible effect on the fluorescence spectrum of [atn]SS-02 and [ald]SS-02. All experiments were done in low ionic solution (deionized water) to optimize electrostatic interactions of peptides with phospholipids.
Increasing concentrations of cardiolipin (5, 10, 25, and 50 μg/mL) were added to 1 μM [atn]SS-02, and the emission intensity between 350 nm and 500 nm was measured.

[3] = Fluorescence spectroscopy of labelled peptide with other phospholipids; assay type: binding; details: 1 μM peptide
Method: 1-palmitoyl-2-oleoyl-sn-glycero-3-phosphocholine (POPC), 1-palmitoyl-2-oleoyl-sn-glycero-3-phosphate (POPA), 1-palmitoyl-2-oleoyl-sn-glycero-3-phospho-L-serine (POPS), 1-palmitoyl-2-oleoyl-sn-glycero-3-phosphoethanolamine (PE), and 1,2-dipalmitoyl-sn-glycero-3-phospho-(1′-rac-glycerol) (DPPG) were obtained from Avanti Polar Lipids Inc (Alabaster, Ala.).
as §2

[4] = molecular target: T1, cytochrome c and cardiolipin (CL) (Equus caballus, UniProt P00004); experiment: Fluorescence quenching by cytochrome c in the presence of cardiolipin; assay type: binding, horse
T1 construct: from tissue; host or cells: horse heart
T1 sequence (P00004 2-105 limits assumed): as above
Method: Fluorescence emission of SS-19 (10 μM) was monitored in real time (Ex/Em=320 nm/420 nm) using Hitachi F-4500 fluorescence spectrophotometer. […] CL may potentiate the interaction between SS-19 and cytochrome c by serving as an anionic platform for the two cationic molecules.
The quenching by cytochrome c was not displaced by sequential additions of bovine serum albumin (500 μg/ml) (FIG. 13C, A+arrows).
SS-36 also contains the polarity-sensitive fluorescent amino acid aladan. […] Accordingly, aromatic-cationic peptides of the present disclosure are useful for the prevention or treatment of diseases or disorders characterized by dysregulation of cardiolipin and/or cytochrome c, and/or diseases or disorders characterized by dysregulation of the cardiolipin/cytochrome c interaction.
as §1

Q: Which “change in λmax on quenching by cytochrome c” value [1] does the source give for 2′,6′-Dmt-D-Arg-Ald-Lys-NH2 [SS-36] here?
A: no change in λmax

Q: What about the “quenching of fluorescence by cytochrome c” value [1] of the same substance?
A: concentration-dependent quenching

Q: And the “increase in quantal yield on addition of CL” value ([2]; 1 μM peptide, 5 μg/ml CL, excitation 350 nm)?
A: more than 100 fold

Q: And the “affinity compared among POPS, POPA, DPPG and cardiolipin” value ([2]; 1 μM peptide, 10 μg/mL phospholipid)?
A: Cardiolipin shows the highest affinity

Q: What about the “peptide fluorescence on addition of CL” value ([2]; CL 2.5 μg/ml) of the same substance?
A: increase in SS-36 fluorescence

Q: And the “interaction with POPC, POPE and neutral cholesterol” value [3]?
A: No interaction

Q: And the “emission maximum with cardiolipin after addition of cytochrome c” value [4]?
A: 450 nm

Q: What about the “emission maximum with cardiolipin before addition of cytochrome c” value [4] of the same substance?
A: 510 nm

Q: And the “quenching of fluorescence by cytochrome c in the presence of CL” value ([4]; CL 2.5 μg/ml, cytochrome c 2 μM)?
A: dramatic quenching

Q: With “2′,6′-Dmt-D-Arg-Phe-(atn)Dap-NH2 [SS-19]” as the substance, how does the “dependence of interaction on amount of cytochrome c” value [1] read?
A: linearly dependent on the amount of cytochrome c added

Q: And the “quenching of the fluorescent signal” value ([1]; 2 μM cytochrome c, 1 μM peptide, absence of cardiolipin, 420 nm)?
A: ~20%

Q: What about the “quenching of peptide fluorescence by cytochrome c” value ([1]; 10 μM peptide, 2 μM cytochrome c, Ex/Em 320/420 nm) of the same substance?
A: similarly quenched by sequential addition of 2 μM cytochrome c; also recorded: immediate quenching of the fluorescence signal

Q: And the “displacement of cytochrome c quenching by bovine serum albumin” value ([1]; BSA 500 μg/ml)?
A: not displaced

Q: What about the “change in λmax on quenching by cytochrome c” value [1] of the same substance?
A: no change in λmax

Q: And the “quenching of fluorescence by cytochrome c” value [1]?
A: concentration-dependent quenching

Q: And the “shift in λmax on addition of CL” value ([2]; 1 μM peptide, CL 5-50 μg/ml, excitation 320 nm)?
A: no significant shift in λmax

Q: And the “increase in quantal yield on addition of CL” value ([2]; 1 μM peptide, CL 5 to 50 μg/ml)?
A: 2 fold

Q: What about the “emission intensity on addition of cardiolipin” value ([2]; 1 μM peptide, deionized water (Example 21)) of the same substance?
A: increased the emission intensity of [atn]SS-02 in a concentration-dependent manner

Q: What about the “peptide fluorescence on addition of CL” value ([2]; 10 μM peptide, CL 50 μg/ml, Ex/Em 320/420 nm) of the same substance?
A: increase in SS-19 fluorescence

Q: What about the “quenching of the fluorescent signal” value ([4]; 2 μM cytochrome c, 1 μM peptide, 10 μg/mL cardiolipin, 420 nm) of the same substance?
A: ~50%

Q: And the “extent of quenching by cytochrome c with CL compared to without CL” value ([4]; 10 μM peptide, CL 50 μg/ml, cytochrome c 2 μM)?
A: larger extent of quenching

Q: What about the “effect of cardiolipin on interaction between cytochrome c and peptide” value ([4]; free cardiolipin or cardiolipin liposomes) of the same substance?
A: potentiated by either free cardiolipin or cardiolipin liposomes in a dose-dependent manner
